Source: patent EP0503537B1, “6,9 Bis(substituted-amino)benzo-[g]isoquinoline-5,10-diones” (THE UNIVERSITY OF VERMONT, priority 1991, dated 1992)
In brackets after ≈: the same amount, converted by molar mass. Several values for one entry are separate records, joined by “and”; a condition that tells them apart may be missing. Equal values may be shown once. Where a name gives a salt, the structure may show the parent alone. Marks after values point to notes of the source that are not given here.

How the values were obtained:
L1210 murine leukemia [1] = experiment: In vivo L1210 murine leukemia (ip/ip, d 1, 5, 9), protocol a, 10^6 cells; design: species or system BDF1 mice; details: days 1, 5 and 9, ip; for %T/C: mean survival time; for LTS: tumor-free at 60 days
Experimental: (§1) L 1210 leukemia cells were intraperitoneally (ip) injected in CDFl mice and treatment was initiated approximately 24 hours after tumor transplantation. Dosages of the drugs were administered ip according to preestablished protocols, usually at 4-day intervals. The studies were done over a 60-day period and the date of death for each animal was recorded. The % T/C was determined using the mean survival time (MST) for each group according to the formula % T/C = [(MST treated)/(MST control)] x 100 [formula]
(§2) • a) L1210 murine leukemia cells were maintained in vivo by weekly intraperitoneal (ip) injections of 10^6 cells in BDF1 mice. For test purposes, mice were inoculated i.p. with 10^6 L1210 cells and treatment was initiated 24 hours later. The desired dose of drug was administered on days 1, 5 and 9. Mice were observed daily for signs of toxicity and survival. The date of death was recorded for each animal that died or was sacrificed during the 60-day study. The mean survival time (MST) for each treatment group was calculated and the % T/C was determined using the following formula: % T/C = [(MST treated)/(MST control)] x 100 [formula] The results are reported in table X • b) L1210 murine leukemia cells were maintained in vivo by weekly intraperitoneal (ip) injections of 10^5 cells in DBA2 mice. For test purposes, CDF1 mice were inoculated i.p. with 10^5 L1210 cells and treatment was initiated 24 hours later. The desired dose of drug was administered on days 1, 5 and 9. Mice were observed daily for signs of toxicity and survival. The date of death was recorded for each animal that died or was sacrificed during the 60-day study. The median survival time (MST) for each treatment group was calculated and the % T/C was determined using the following formula: % T/C = [(MST treated)/(MST control)] x 100 [formula]

L1210 murine leukemia [2] = experiment: In vivo ascitic L1210 murine leukemia (ip/ip, d 1, 5, 9), protocol b, 10^5 cells; design: species or system CDF1 mice; details: for %T/C: median survival time; for TOX: toxic deaths/total No. of mice; for LTS: tumor free at 60 days
Experimental: as §1, with “Dosages” for “L 1210 leukemia cells were intraperitoneally (ip) injected in CDFl mice and treatment was initiated approximately 24 hours after tumor transplantation. Dosages”
as §2, with “The mean survival time (MST) for each treatment group was calculated and the % T/C was determined using the following formula: % T/C = [(MST treated)/(MST control)] x 100 [formula] The results are reported in table X • b) L1210 murine leukemia cells were maintained in vivo by weekly intraperitoneal (ip) injections of 10^5 cells in DBA2 mice.” left out

P388 Murine Leukemia [3] = experiment: In vivo ascitic P388 murine leukemia (ip/ip, d 1, 5, 9); design: species or system CDF1 mice; details: for % T/C (range): median survival time; for TOX: toxic deaths/total No. of mice
Experimental: Treatment was initiated approximately 24 hours after tumor transplantation and dosages of the drug were administered ip (P388 ip/ip) or iv (P388 iv/iv) according to preestablished protocols, usually at 3-day (P388 iv/iv) or 4-day (P388 ip/ip) intervals. The studies were done over a 60-day period and the date of death for each animal was recorded. The % T/C was determined using the mean survival time (MST) for each group according to the formula % T/C = [(MST treated)/(MST control)] x 100 [formula]
P388 Murine Leukemia cells were maintained in vivo by serial intraperitoneal (ip) injections of 10^6 cells in DBA2 mice. For test purposes, CDF1 mice were inoculated i.p. with 10^6 P388 cells and treatment was initiated 24 hours later. The i.p dose of drug was administered on days 1, 5 and 9. Mice were observed daily for signs of toxicity and survival. The date of death was recorded for each animal that died or was sacrificed during the 60-day study. The median survival time (MST) for each treatment group was calculated and the % T/C was determined using the following formula: % T/C = [(MST treated)/(MST control)] x 100 [formula]

[4] = test system: L1210 Murine leukemia cells; experiment: In vitro growth inhibition of L1210 murine leukemia cells (Coulter Counter); format: cell-based; details: Mus musculus, 72 hours of continuous exposure
Experimental: The "in vitro" cytotoxic evaluation was also performed on L 1210 murine leukemia cells using the above mentioned cells maintained in suspension cultures (McCoy's 5A medium supplemented with 10% horse serum, glutamine, penicillin and streptomycin) grown in an humidified environment of 10% carbon dioxide and 90% air at 37°C. The compounds were dissolved in dimethylsulfoxide (DMSO) and added to the suspended cells in appropriate concentrations. After 72 hours of continuous exposure, the cell concentration was counted using a Coulter Counter and growth inhibition calculated using the formula: % growth inhibition = 1 - [cell number treated/cell number DMSO alone] x 100. [formula]
The IC50 was calculated from the growth inhibition data and they are reported in table VII in comparison to the prior art compound 5a (see table I for structure of 5a).
L1210 Murine leukemia cells were routinely maintained in suspension cultures in McCoy's 5A medium supplemented with 10% horse serum glutamine, penicillin and streptomycin and grown in a humidified environment of 10% carbon dioxide and 90% air at 37°C.
To assess the in vitro toxicity, each compound was dissolved in dimethylsulfoxide and added to 1 ml of L1210 cells (10^5 cells/tube) to attain final concentrations of 0.01, 0.1 and 1 µg of drug/ml of culture. After 72 hours of continues exposure to the drug, the cell concentration was determined with a Coulter Counter. Growth inhibition was calculated for each drug using the following formula: % growth inhibition = 1-[cell number treated/cell number DMSO alone] x 100. [formula]
The growth inhibition data was then used to calculate the IC50 value (the calculated drug concentration required to inhibit cell growth by 50% of control.

P388 Murine Leukemia [5] = experiment: In vivo P388 murine leukemia (iv/iv, d 1, 4, 7); details: for T/C% (range): median survival time; for LTS: tumor free at 60 days
Experimental: P388 Murine Leukemia cells were maintained in vivo by serial intraperitoneal (i.p.) injections of 10^6 cells in DBA2 mice. For test purposes, CDF1 mice were inoculated intravenously (i.v.) with 10^6 P388 cells and treatment was initiated 24 hr later. The i.v. dose of drug was administered on days 1, 4 and 7. Mice were observed daily for signs of toxicity and survival. The date of death was recorded for each animal that died or was sacrificed during the 60 day study. The median survival time (MST) for each treatment group was calculated and the % T/C was determined using the following formula: % T/C = [(MST treated)/(MST control)] x 100 [formula]

[6] = test system: human colon adenocarcinoma cell line (Lovo); experiment: MTT cytotoxicity assay on human colon adenocarcinoma Lovo cells; format: cell-based; details: 144 h, read-out: IC50 µg/ml±S.D. LoVo
Experimental: (§3) The evaluation of the "in vitro" cytotoxic activity of the compounds of the invention was performed using a human colon adenocarcinoma cell line (Lovo) isolated from a metastatic nodule and a subline with aquired resistance to a number of antitumor agents, among which doxorubicin, VP-16 and vincristine. […] The compounds were tested according to the MTT assay (Mosman, T., "Rapid Colorimetric assay for cellular growth and survival: application to proliferation and cytotoxicity assay", J. Immunol. Methods, (1983), 65, 55-63; Green, L.M., "Rapid colorimetric assay for cell viability; application to the quantitation of cytotoxic and growth inhibitory lymphokines", J. Immunol. Methods, (1984), 70, 257-268) in comparison with mitoxantrone, ametantrone and doxorubicin.
(§4) In vitro biological evaluation: MTT assay on human colon adenocarcinoma Lovo cells.
(§5) The MTT assay was performed according to Mosmann, T., J. Immunol. Methods, (1983), 65, 55-63 and Green, L. M., J. Immunol. Methods, (1984), 70, 257-268.
(§6) Immediately before use, compounds and reference standards are dissolved in proper solvent and subsequently further diluted in complete culture medium. Human colon adenocarcinoma cells Lovo and the subline resistant to doxorubicin (Lovo/DX) (2.5. 10^4 cells/ml) are plated in 96-well plates and preincubated for 24 hours in culture medium. After this time, the cells are exposed to drugs for 144 hours, then the thiazolyl blue tetrazolium bromide solution (MTT solution) is added and the cells are reincubated for 4 hours. The supernatant is removed and 150 µl of dimethylsulfoxide are added to solubilize formazan crystals. The plate is read at 570 nm with microplate reader and the inhibiting concentration of 50% cellular growth (IC50; µg/ml) is calculated.

Lovo/DX = experiment: MTT cytotoxicity assay on doxorubicin-resistant subline Lovo/DX; format: cell-based, human
Experimental: as §3, §4, §5, §6

murine L 1210 leukemia [7] = details: in vitro, from J. Med. Chem. (1985), 28, 1124-1126; cited from earlier work
murine L 1210 leukemia [8] = details: in vivo, Dose 50 mg/kg; cited from earlier work

Question: Which “%T/C” value (L1210 murine leukemia [1]; Dose 12.5 mg/kg) does the source give for `NCCNc1ccc(NCCN)c2c1C(=O)c1ccncc1C2=O` [Compound 10i.HCl, 6,9-bis{[2-(amino)ethyl]amino}benzo[g]isoquinoline-5,10-dione] here?
Answer: 265%

Question: And the LTS (L1210 murine leukemia [1]; Dose 12.5 mg/kg)?
Answer: 4/6

Question: And the “%T/C” value (L1210 murine leukemia [1]; Dose 25 mg/kg)?
Answer: 265%

Question: What about the LTS (L1210 murine leukemia [1]; Dose 25 mg/kg) of the same molecule?
Answer: 5/6

Question: And the “%T/C” value (L1210 murine leukemia [2]; 6.25 mg/kg/day ip days 1,5,9)?
Answer: 156%

Question: And the TOX (L1210 murine leukemia [2]; 6.25 mg/kg/day ip days 1,5,9)?
Answer: 0/8

Question: What about the LTS (L1210 murine leukemia [2]; 6.25 mg/kg/day ip days 1,5,9) of the same molecule?
Answer: 0/8

Question: And the “%T/C” value (L1210 murine leukemia [2]; 12.5 mg/kg/day ip days 1,5,9)?
Answer: 175%

Question: And the TOX (L1210 murine leukemia [2]; 12.5 mg/kg/day ip days 1,5,9)?
Answer: 0/8

Question: And the LTS (L1210 murine leukemia [2]; 12.5 mg/kg/day ip days 1,5,9)?
Answer: 1/8

Question: And the “%T/C” value (L1210 murine leukemia [2]; 25 mg/kg/day ip days 1,5,9, value calculated on dead mice)?
Answer: 250* %

Question: What about the TOX (L1210 murine leukemia [2]; 25 mg/kg/day ip days 1,5,9) of the same molecule?
Answer: 1/7

Question: What about the LTS (L1210 murine leukemia [2]; 25 mg/kg/day ip days 1,5,9) of the same molecule?
Answer: 4/7

Question: And the “LTS (day 60)” value (P388 Murine Leukemia [3]; 3.1 mg/kg/day ip days 1,5,9)?
Answer: 0/8

Question: And the “% T/C (range)” value (P388 Murine Leukemia [3]; 3.1 mg/kg/day ip days 1,5,9)?
Answer: 144%

Question: And the TOX (P388 Murine Leukemia [3]; 3.1 mg/kg/day ip days 1,5,9)?
Answer: 0/8

Question: What about the “LTS (day 60)” value (P388 Murine Leukemia [3]; 6.25 mg/kg/day ip days 1,5,9) of the same molecule?
Answer: 0/8

Question: And the “% T/C (range)” value (P388 Murine Leukemia [3]; 6.25 mg/kg/day ip days 1,5,9)?
Answer: 196%

Question: And the TOX (P388 Murine Leukemia [3]; 6.25 mg/kg/day ip days 1,5,9)?
Answer: 1/8

Question: What about the “LTS (day 60)” value (P388 Murine Leukemia [3]; 12.5 mg/kg/day ip days 1,5,9) of the same molecule?
Answer: 0/8

Question: And the “% T/C (range)” value (P388 Murine Leukemia [3]; 12.5 mg/kg/day ip days 1,5,9)?
Answer: 239%

Question: What about the TOX (P388 Murine Leukemia [3]; 12.5 mg/kg/day ip days 1,5,9) of the same molecule?
Answer: 0/8

Question: And the “LTS (day 60)” value (P388 Murine Leukemia [3]; 25 mg/kg/day ip days 1,5,9)?
Answer: 2/8

Question: What about the “% T/C (range)” value (P388 Murine Leukemia [3]; 25 mg/kg/day ip days 1,5,9) of the same molecule?
Answer: 367%

Question: What about the TOX (P388 Murine Leukemia [3]; 25 mg/kg/day ip days 1,5,9) of the same molecule?
Answer: 0/8

Question: What about the IC50 [4] of the same molecule?
Answer: 0.05 µg/mL

Question: For `CN(C)CCNc1ccc(NCCN(C)C)c2c1C(=O)c1ccncc1C2=O` [Compound 10a, 6,9-Bis{[2-(dimethylamino)ethyl]amino}benzo[g]isoquinoline-5,10-dione], which “%T/C” value (L1210 murine leukemia [1]; Dose 50 mg/kg) is on record?
Answer: 151%

Question: And the “T/C% (range)” value (P388 Murine Leukemia [5]; 18 mg/kg/day iv days 1,4,7)?
Answer: 172% and 156%

Question: What about the LTS (P388 Murine Leukemia [5]; 18 mg/kg/day iv days 1,4,7) of the same molecule?
Answer: 0/14

Question: And the “T/C% (range)” value (P388 Murine Leukemia [5]; 27 mg/kg/day iv days 1,4,7)?
Answer: 188% and 167%

Question: What about the LTS (P388 Murine Leukemia [5]; 27 mg/kg/day iv days 1,4,7) of the same molecule?
Answer: 0/17

Question: And the “T/C% (range)” value (P388 Murine Leukemia [5]; 40 mg/kg/day iv days 1,4,7)?
Answer: 183% and 156%

Question: What about the LTS (P388 Murine Leukemia [5]; 40 mg/kg/day iv days 1,4,7) of the same molecule?
Answer: 0/16

Question: And the IC50 [6]?
Answer: 0.045 µg/mL (≈ 0.118 µM)

Question: What about the IC50 (Lovo/DX; Homo sapiens, LoVo/DX, MTT assay, 144 hrs drug exposure, read-out: IC50 µg/ml±S.D. LoVo/Dx) of the same molecule?
Answer: 0.085 µg/mL (≈ 0.223 µM)

Question: What about the R.I. (Lovo/DX; R.I. = (IC50 LoVo/Dx)/(IC50 LoVo)) of the same molecule?
Answer: 1.9

Question: What about the “cross resistance with mitoxantrone and ametantrone” value (Lovo/DX; resistant subline Lovo/DX) of the same molecule?
Answer: no cross resistance

Question: What about the IC50 [4] of the same molecule?
Answer: 0.006 µg/mL (≈ 0.0157 µM)

Question: What does the source list for `CN(C)CCNc1ccc(NCCN(C)C)c2c1C(=O)c1cccnc1C2=O` [Compound 5a, 6,9-bis{[2-(dimethylamino)ethyl]amino}benzo[g]quinoline-5,10-dione, reference compound]?
Answer: %T/C (L1210 murine leukemia [1]; Dose 50 mg/kg): 129%; ID50 (murine L 1210 leukemia [7]): 0.16 µg/mL (≈ 0.419 µM); T/C (murine L 1210 leukemia [8]): 130; IC50 [4]: 0.155 µg/mL (≈ 0.406 µM)
